Data: the supplement of paper PMC10331698
± gives the standard deviation of the averaged measurements.

How the values were obtained:
Assay in all cases: level (log10 ratio to DMSO vehicle control); higher = higher biomarker level / cell amount than vehicle control
Perfluoroundecanoic acid = compound: O=C(O)C(F)(F)C(F)(F)C(F)(F)C(F)(F)C(F)(F)C(F)(F)C(F)(F)C(F)(F)C(F)(F)C(F)(F)F [Perfluoroundecanoic acid] (in DMSO); settings: 6700 nM
Method: (§1)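 BioMAP Diversity Plus panel of 12 human primary cell co-culture systems (3C, 4H, LPS, SAg, BT, BF4T, BE3C, CASM3C, HDF3CGF, KF3CT, MyoF, Mphg). Compounds were added 1 h before stimulation and left for 24 h (MyoF 48 h; BT 72 h for soluble read-outs or 6 d for IgG). Biomarkers were read by ELISA, cytotoxicity by SRB, PBMC viability and proliferation by Alamar Blue. Each well value was divided by the mean of 8 DMSO control wells on the same plate and log10 transformed; duplicate blinded samples were tested at 4 concentrations.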

[1] = compound: NS(=O)(=O)C(F)(F)C(F)(F)C(F)(F)C(F)(F)C(F)(F)C(F)(F)C(F)(F)C(F)(F)F [Perfluorooctanesulfonamide] (in DMSO)
Method: as §1

[2] = compound: OCCC(F)(F)C(F)(F)C(F)(F)C(F)(F)F [4:2 Fluorotelomer alcohol] (in DMSO)
Method: as §1

[3] = compound: OCC(F)(F)OC(F)(F)C(F)(F)OC(F)(F)C(F)(F)OC(F)(F)CO [1H,1H,11H,11H-Perfluorotetraethylene glycol] (in DMSO)
Method: as §1

[4] = compound: O=C(O)CCC(F)(C(F)(F)F)C(F)(F)F [4,4-bis(Trifluoromethyl)-4-fluoropropanoic acid] (in DMSO)
Method: as §1

[5] = compound: CN(C(=O)C(F)(F)C(F)(F)C(F)(F)F)[Si](C)(C)C [N-Methyl-N-trimethylsilylheptafluorobutyramide] (in DMSO)
Method: as §1

[6] = compound: CO[Si](C)(CCC(F)(F)C(F)(F)C(F)(F)C(F)(F)C(F)(F)C(F)(F)F)OC [Dimethoxymethyl((perfluorohexyl)ethyl)silane] (in DMSO)
Method: as §1

[7] = compound: O=C(O)C=C(C(F)(F)F)C(F)(F)F [3,3-Bis(trifluoromethyl)-2-propenoic acid] (in DMSO)
Method: as §1

Row | Test System | level (log10) (Perfluoroundecanoic acid) | level (log10) ([1]; 6700 nM) | level (log10) ([1]; 20000 nM) | level (log10) ([2]; 6700 nM) | level (log10) ([2]; 20000 nM) | level (log10) ([2]; 60000 nM) | level (log10) ([3]; 6700 nM) | level (log10) ([3]; 20000 nM) | level (log10) ([3]; 60000 nM) | level (log10) ([4]; 6700 nM) | level (log10) ([4]; 20000 nM) | level (log10) ([4]; 60000 nM) | level (log10) ([5]; 6700 nM) | level (log10) ([5]; 20000 nM) | level (log10) ([5]; 60000 nM) | level (log10) ([6]; 6700 nM) | level (log10) ([6]; 20000 nM) | level (log10) ([7]; 6700 nM) | level (log10) ([7]; 20000 nM) | level (log10) ([7]; 60000 nM)
1 | lMphg:CD106/VCAM-1 | -0.004 ± 0.0057 | 0.006 ± 0.014 | 0.0365 ± 0.0021 | -0.0025 ± 0.016 | 0.0005 ± 0.011 | 0.0005 ± 0.025 | -0.015 ± 0.024 | 0.009 ± 0.05 | 0 ± 0.04 | -0.007 ± 0.011 | 0.0005 ± 0.0092 | -0.009 ± 0.017 | -0.025 ± 0.0028 | -0.0055 ± 0.025 | -0.028 ± 0.042 | 0.009 ± 0.021 | -0.009 ± 0.028 | -0.0205 ± 0.005 | -0.025 ± 0.0099 | -0.0935 ± 0.0064
2 | lMphg:CXCL8/IL-8 | 0.01 ± 0.013 | 0.004 ± 0.0042 | 0.124 ± 0.019 | 0.003 | 0.0065 ± 0.033 | 0.0275 ± 0.035 | -0.022 ± 0.017 | -0.034 ± 0.017 | -0.0265 ± 0.032 | 0.017 ± 0.059 | 0.032 ± 0.024 | 0.01 ± 0.076 | -0.0215 ± 0.0078 | 0.009 ± 0.027 | 0.0155 ± 0.025 | -0.0095 ± 0.029 | 0.0025 ± 0.015 | 0.081 ± 0.016 | 0.123 ± 0.014 | 0.201 ± 0.047
3 | lMphg:IL-1alpha | 0.022 ± 0.045 | 0.053 ± 0.05 | 0.228 ± 0.028 | -0.0295 ± 0.013 | -0.0105 ± 0.005 | 0.0075 ± 0.028 | 0.012 ± 0.0057 | 0.0065 ± 0.04 | 0.0605 ± 0.053 | 0.0125 ± 0.07 | 0.022 ± 0.011 | 0.0125 ± 0.026 | -0.038 ± 0.0014 | -0.034 ± 0.0071 | 0.017 ± 0.052 | -0.032 ± 0.0014 | 0.0125 ± 0.073 | -0.073 ± 0.068 | -0.0565 ± 0.052 | -0.043 ± 0.075
4 | lMphg:M-CSF | 0.016 ± 0.02 | -0.0445 ± 0.0092 | -0.029 ± 0.021 | -0.021 ± 0.017 | -0.003 ± 0.018 | -0.0025 ± 0.039 | -0.0215 ± 0.0021 | -0.0385 ± 0.0078 | -0.0575 ± 0.044 | -0.0115 ± 0.043 | -0.0135 ± 0.032 | -0.0165 ± 0.019 | -0.033 ± 0.014 | -0.018 ± 0.025 | -0.0045 ± 0.0064 | -0.0075 ± 0.036 | 0.0135 ± 0.025 | -0.033 ± 0.0071 | -0.021 ± 0.021 | -0.0325 ± 0.022
5 | lMphg:SRB | -0.001 ± 0.011 | -0.013 | -0.052 ± 0.0085 | 0.001 ± 0.0099 | 0.0015 ± 0.0035 | 0.004 ± 0.0071 | -0.009 ± 0.011 | -0.024 ± 0.0042 | -0.047 ± 0.0099 | -0.0025 ± 0.0064 | -0.0005 ± 0.0064 | 0.0065 ± 0.0021 | -0.0015 ± 0.005 | 0 ± 0.0099 | 0.003 ± 0.0014 | -0.0025 ± 0.0092 | -0.0045 ± 0.00071 | -0.0145 ± 0.013 | -0.0205 ± 0.0021 | -0.0205 ± 0.028
6 | lMphg:SRB-Mphg | -0.019 ± 0.016 | -0.0005 ± 0.0064 | -0.027 ± 0.016 | -0.007 ± 0.03 | -0.004 ± 0.018 | 0.016 ± 0.017 | 0 ± 0.0042 | -0.011 ± 0.0028 | -0.077 ± 0.0028 | 0.0125 ± 0.0021 | -0.0025 ± 0.012 | 0.002 ± 0.016 | 0.0035 ± 0.00071 | 0.002 ± 0.031 | 0.015 ± 0.02 | 0.0195 ± 0.0021 | 0.0295 ± 0.0021 | -0.032 | -0.017 ± 0.014 | 0.0035 ± 0.012
7 | lMphg:sIL-10 | 0.0325 ± 0.016 | -0.068 ± 0.021 | -0.169 ± 0.025 | -0.0195 ± 0.0078 | -0.0385 ± 0.022 | -0.025 ± 0.0099 | -0.0385 ± 0.056 | -0.0965 ± 0.066 | -0.306 ± 0.025 | -0.0325 ± 0.005 | -0.062 ± 0.075 | -0.003 ± 0.12 | -0.006 ± 0.061 | -0.135 ± 0.1 | -0.0905 ± 0.043 | -0.0465 ± 0.013 | -0.085 ± 0.014 | -0.2 ± 0.0071 | -0.325 ± 0.029 | -0.547 ± 0.028
